This is an account of results in patent publication US20250032581A1, “COMPOSITIONS AND ARTICLES COMPRISING AN ADNF POLYPEPTIDE” (RAMOT AT TEL-AVIV UNIVERSITY LTD., priority 2021, published 2025).

Each structure is given as a SMILES string.

The subject of assay [1] is mice with the ASD-linked InsG3680 mutation (SHANK3). As to the kind of experiment: Social recognition test in the SHANK3 mouse model. The class given is in vivo. Particulars: intranasal NAP. Here is the method: To this end, mice with the ASD-linked InsG3680 mutation were used. Two behavioral assessments were performed on make mice: • 1) Open field behavior attesting to anxiety and depression (Open field behavioral assessment technology was previously described, e.g.); and • 2) Social recognition behavior, related to autistic traits (the social recognition test was previously described, e.g..
In the social recognition test, the results measured both time exploring and frequency exploring the mouse or cup, either directly or in the chamber where the mouse or cup only are present (FIG. 13).

Another assay relates to BTBR mouse. As to the kind of experiment: Social recognition in the BTBR mouse. In kind it is in vivo.
Another assay deals with Tau, tubulin. As to the kind of experiment: Polymerized vs. soluble tubulin assay. In kind it is cell-based, mouse. The following applies: zinc 400 μM, 4 h, peptide 10^−12M. Here is the method:
Polymerized vs. soluble tubulin assay—To quantify tubulin polymerization and Tau-MT association, a simple assay was performed as previously described. The cells grown to confluence in six-well plates were washed with MT buffer (80 mM PIPES pH 6.8, 1 mM MgCl^2, 2 mM EGTA, 5% Glycerol) and lysed at room temperature for 5 min through centrifugation (300 g), with 150 μl of MT buffer with 0.5% Triton X-100 to extract soluble (cytosolic) tubulin (S). The pelleted cells were rinsed once again with an equal volume of modified RIPA lysis buffer (50 mM Tris-HCL pH 7.4, 150 mM NaCl, 2 mM EGTA, 1% Triton X-100, 0. 1% SDS, 0.1% sodium Deoxycholate) to collect the polymerized (cytoskeletal) tubulin (P). The cytosolic and cytoskeletal fractions were each mixed with sample buffer and heated at 95° C. for 5 min. An equal volume of each fraction was analyzed by immunoblotting with Tau, tubulin and actin antibodies, and the results following ECL development were quantified by densitometry (GelQuant.NET software provided by biochemlabsolutions(dot)com).
It is known that in the presence of extracellular zinc NAP protects MT against degradation by promoting Tau binding to the MT shaft. Polymerized vs. soluble tubulin assay was effected to compare protective activities of NAP and SKIP against MT degradation and Tau-MT dissociation (FIGS. 11F-G). After treatments with zinc (400 μM, 4 h) with and without NAP or SKIP (10^−12M, 4 h) the cellular-tubulin pool was separated into polymerized and soluble tubulin fractions. The amount of Tau, tubulin, and actin was identified by immunoblotting (FIG. 11F), followed by densitometric quantification (FIG. 11G).

Assay [2] has as its system differentiated N1E-115 cells expressing RFP-tagged EB3. As to the kind of experiment: Live imaging of EB3 comet-like structures (MT dynamics). The class given is cell-based, mouse. The source says: Plasmid construction—Protein expressing plasmids were constructed as previously described based on pEGFP-C1 backbone and express full-length ADNP or the following truncated ADNP proteins: p.Glu830synfs*83, p.Lys408Valfs*31, p.Ser404* (as before). Inserts of cDNA carrying unique mutations were obtained from mRNA extracted from patient-derived lymphoblastoid cell lines and cDNA with full-length human ADNP was obtained from a control lymphoblastoid cell line with no mutation. Protein expressions were verified by fluorescent imaging and immunoblotting analysis as before.
Cell culture—Mouse neuroblastoma NIE-115 cells were maintained in Dulbecco's modified Eagle's medium, 10% fetal bovine serum, 2 mM glutamine and 100 U ml-1 penicillin, 100 mg ml-1 streptomycin (Biological Industries, Beit Haemek, Israel). The cells were incubated in 9 5% air/5% CO2 in a humidified incubator at 37° C.
Cell differentiation and co-transfection of overexpression plasmids—Cultured NIE-115 cells were plated on 35 mm dishes (81156, 60 p-Dish, Ibidi, Martinsried, Germany) at a concentration of 1.25×10^4 cells per dish and then were differentiated with reduced fetal bovine serum (2%) and DMSO (1.25%) containing medium for 5 days before transfection. 48 hrs before experiments N1E-115 cells were co-transfected with 1 μg EB3-RFP or mCherry-Tau (3R) plasmid with or without 2 μg of plasmids, coding to GFP conjugated to full-length human ADNP, or ADNP carried mutations. 1:3 ratios between total amount of transfected DNA and transfection reagent were used according to manufacture guidance (Lipofectamine2000, Thermo Fisher Scientific, Waltham, MA, USA) in all subsequent experiments.
Live Imaging—48 hrs after transfection, differentiated NIE-115 cells (expressing EB3-RFP with or without GFP-conjugated to full-length ADNP or mutated ADNP) were incubated at 37° C. with a 5% CO2/95% air mixture in a thermostatic chamber placed on the stage of a Leica TCS SP5 confocal microscope (objective 100× (PL Apo) oil immersion, NA 1.4). Time-lapse images were automatically captured 3 sec during 1 min, using the Leica LAS AF software. After imaging all samples were also treated with NAP (SEQ ID NO: 2) or SKIP (SEQ ID NO: 21) in final concentrations of 10^−12M, and after 4 hrs time-lapse imaging was done again under the same conditions. Data was collected and analyzed by Imaris software.
To evaluate the effect of ADNP truncated proteins on MT dynamics time-lapse imaging of EB3 comet-like structures formed by RFP-tagged EB3 proteins that bind to MT plus-ends was performed. Two parameters of EB3 activity were used to assess MT dynamics—track length and track speed of EB3 comets, which reflect the length of freshly growing MTs and the speed of MT assembly, respectively. Furthermore, the present inventors aimed to determine whether NAP ([…] for 4 hrs) could prevent the deleterious effect of ADNP mutations.

The test system of assay [3] is AT8 (hyperphosphorylated Tau). As to the kind of experiment: AT8 immunohistochemistry (hyperphosphorylated Tau). In kind it is in vivo, mouse. The following applies: WT males, data not shown. Here is the method:
AT8 Immunohistochemistry—experiment was performed as previously described (100). Mice were treated for 6 weeks with daily intranasal DD/NAP and were euthanized at 10.21±0.05 weeks of age.

In assay [4] the test system is Tyr mice. As to the kind of experiment: RNA seq of mouse spleens. In kind it is in vivo. Here is the method:
RNA seq—Total RNA was extracted from 14-week-old mouse spleens and sequenced using standard methods on NextSeq500 system (Illumina) as detailed. Data were analyzed as previously described (9).

Assay [5] has as its system Tyr mice. As to the kind of experiment: Visual evoked potentials (VEP). In kind it is in vivo, mouse. On the set-up: key to NAP efficacy: visual evoked potential/axonal transport: corrections by NAP treatment (+). How it is done: VEP—5.72±0.52-week-old male mice were used for VEP measurements. Animals were treated for 3 days with 0.1 ml S.C saline, recorded, and then followed by 4 daily S.C doses of either 1 μg NAP (in 0.1 ml saline) or 0.1 ml saline followed by another VEP recording.

As to `CC[C@H](C)[C@H](NC(=O)[C@H](CO)NC(=O)[C@@H](NC(=O)[C@@H]1CCCN1C(=O)[C@H](C)NC(=O)[C@@H](N)CC(N)=O)C(C)C)C(=O)N1CCC[C@H]1C(=O)N[C@@H](CCC(N)=O)C(=O)O` [NAP, NAPVSIPQ], the “social recognition: mouse vs. cup exploration” value in assay [1] is reported as “normalization of behavior in the NAP-treated SHANK3 mouse model”. Besides, the social recognition entry with BTBR mouse is given as “preference of the mouse, rather than the cup=object chamber”. In addition, in the assay on Tau, tubulin, the “protection against Tau dissociation from MTs (soluble Tau ratio)” value was “only NAP exhibited protection against Tau dissociation from MTs” and the “protection of polymerized tubulin against zinc” value is “protected against zinc-induced decay”. The “EB3 track length and speed” value in assay [2] (10^−12M, 4 hrs, vs. non-treated control, no significant differences between NAP and SKIP) was “increased EB3 track length and speed”. Also, the “EB3 comet speed and track length” value in assay [2] (cells expressing ADNP p.Glu830synfs*83, NAP 4 hrs) was “significantly augmented”. The “EB3 comet speed and track length” value in assay [2] (cells expressing ADNP p.Ser404*, NAP 4 hrs) is “significantly augmented”. Moreover, in assay [2] (cells expressing full-length ADNP, NAP 4 hrs), the “EB3 comet track length and speed” value was “did not further influence the effect of full-length ADNP”. In assay [3], the AT8 positive cells result was “did not display a NAP effect”. For the same compound, in the assay on Tyr mice [4], the “spleen gene expression converging on AKT1, nervous and reproductive systems development” value is on record as “corrected by NAP”. The “VEP P3 AUC” value in the assay on Tyr mice [5] (Tyr males) is “significant NAP effect seen in the 300 and 3000 mcd intensities”. Further, the “NAP efficacy: visual evoked potential/axonal transport” value with Tyr mice [5] (Tyr mouse (first symbol)) is on record as “+/+”.
